Results as given in publication PMC9691367, “The PROTAC selectively degrading Bcl-xL represents a novel Hedgehog pathway inhibitor with capacity of combating resistance to Smoothened inhibitors while sparing bone growth” (Theranostics, 2022).

What was measured:
[1] = system: light II and NIH-3T3 cells; assay: In vitro cytotoxicity assay (MTT); format: cell-based; details: 10 μM, 72 h
Procedure: Cells were seeded in 96-well plates at an appropriate density and treated with compounds for 72 h. The effects on proliferation were determined using MTT according to the manufacturer's protocol.
Figure S2. (A) Viability of NIH-3T3 cells and light II cells was determined by MTT cytotoxicity assays after incubation with various concentrations of SIAIS361034 as indicated for 72 h. Data represent mean ± SD (n = 3). (B) NF-κB luciferase analysis of the effect of SIAIS361034 on NF-κB signaling pathway in 293T cells.The 293T cells were transfected with NF-κB luciferase reporter and Renilla-TK plasmids and […]
μM) for 6 h. Data represent mean ± SD (n = 3). (C) TCF/LEF luciferase analysis of the effect of SIAIS361034 on Wnt signaling pathway in LS174T cells. The LS174T cellswere transfected with TCF/LEF luciferase reporter and Renilla-TK plasmids and […]
(§1) Data represent mean ± SD (n = 3).
(§2) (1 picture or pasted object on this page, not shown here)

Bcl-xL = Bcl-xL (Homo sapiens, UniProt Q07817); assay: Competitive fluorescence polarization assay, Bcl-xL / FAM-Bad; format: binding; details: Bcl-xL 5 nM, FAM-Bad 5 nM
Procedure: Competitive fluorescence polarization assays were carried out in black-walled plates in assay buffer (20 mM Na2HPO4 ·12H2O, 20 mM NaH2PO4·12H2O, 1 mM EDTA, 50 mM NaCl, 0.05% PF-68). The use of protein/peptide probe pairs was as follows: Bcl-xL (5 nM) and FAM-Bad (5 nM), Bcl-2 (100 nM) and FAM-Bax (5 nM), Mcl-1 (100 nM) and FAM-Bim (5 nM). Assay buffer, proteins, drugs, and peptides were added to the assay plates sequentially. The assay plates were slightly shaken for 3 min and incubated for 30 min at room temperature. The fluorescence polarization was measured on a Synergy 2 reader (BioTek).

Gli1 and Ptch1 mRNA = assay: RT-qPCR of Hh target genes in NIH-3T3 cells exposed to SAG; format: cell-based; details: 36 h
Procedure: Total RNA was extracted from cells or tissues using the NucleoSpin RNA kit (#740955.50, TaKaRa). RNA reverse transcriptions were performed with PrimeScript RT Reagent Kit with RNase inhibitor (#RR037B, TaKaRa). The quantitative PCR amplifications were performed in triplicate with TB Green Premix Ex Taq (Tli RNase H Plus) (#RR420A, TaKaRa) in an iCycler iQ system (Bio-Rad; Hercules, CA). Relative gene expression for interested genes was calculated using the 2^-ΔΔCt method and normalized to mGUSB expression. Primer sequences for RT-qPCR are as follows: mGli1 forward (5′-[…]-3′), reverse (5′-[…]-3′); mPtch1 forward (5′-[…]-3′), reverse (5′-[…]-3′); mGUSB forward (5′-[…]-3′), reverse (5′-[…]-3′).

NF-κB signaling pathway = assay: NF-κB luciferase reporter assay in 293T cells; format: cell-based; details: TNF-α 10 ng/mL, 6 h, SIAIS361034 10 μM, BAY 11-7082 20 μM
Procedure: Cells seeded in 96-well plates were treated with various treatments as indicated. The luciferase activity in the cell lysates was measured using Dual-Luciferase Reporter Assay System (Promega, Madison, WI, USA) according to the manufacturer's instructions in a luminometer (Molecular Devices, Sunnyvale, CA). The firefly luciferase values were normalized to Renilla values. […]
Data represent mean ± SD (n = 3). (B) NF-κB luciferase analysis of the effect of SIAIS361034 on NF-κB signaling pathway in 293T cells.The 293T cells were transfected with NF-κB luciferase reporter and Renilla-TK plasmids and […]
μM) for 6 h. Data represent mean ± SD (n = 3). […]
as §1, §2

[2] = system: bone growth of young mice; assay: Bone growth of young mice (body weight, Micro-CT, H&E, IHC); format: in vivo, mouse; details: 6-week-old mice treated P12 to P16
Sufu/Gli1 interaction = assay: Co-immunoprecipitation of Sufu with Gli1 in NIH-3T3 cells; format: cell-based; details: 1 µM
Procedure: Cells were lysed in immunoprecipitation lysis buffer (#87787, Thermo Fisher Scientific) supplemented with protease and phosphatase inhibitor cocktail. Cell lysates were incubated with the indicated antibodies at 4 °C overnight, followed by incubation with Protein A/G Plus-Agarose beads (Santa Cruz Biotechnology) at 4 °C for 4 h. Immunoprecipitates were collected by centrifugation and washed three times with washing buffer. The complex was separated from the beads and then boiled for 10 min. The immunoprecipitates and inputs were analyzed by SDS-PAGE and immunoblot using the antibodies as indicated.

[3] = system: hair growth and Hh pathway activity in skin; assay: Depilatory mouse model; format: in vivo
Procedure: For Depilatory model studies, male C57BL/6J mice (7 to 8 weeks of age) were purchased from Shanghai Lingchang Biotechnology Co. (Shanghai, China). After 2 days of acclimation, only healthy mice were used in the experiment. The back skin of the anesthetized mice was shaved and depilated using the depilatory Nair (Church & Dwight Co., Inc.). After 4 days, the depilated mice were randomized into groups for treatments as indicated. The back skin phenotypes were recorded by taking pictures every 3 days. Skin tissues were harvested 6 h after the last dosage to examining Gli1 mRNA expression as well as Gli1 and Bcl-xL protein levels.

[4] = system: bone growth of young mice; assay: Bone growth of young mice (body weight, Micro-CT, H&E, IHC); format: in vivo, mouse
Procedure: Skeleton Micro-CT images of mice were taken under anesthesia. The femurs were fixed and stored in 4% PFA at 4 °C. Mice and femurs were scanned using Inveon PET-CT (Siemens). Bone tissues were computed with Inveon Acquisition Workplace (IAW). Image data were visualized and analyzed by Inveon Viewer.
Femurs were fixed in 4% PFA and decalcified in 14% EDTA for 2 weeks at 4 °C. Bone tissues were embedded in paraffin. Thin sections were stained with hematoxylin and eosin (H&E) according to the manufacturer's instructions. For immunohistochemistry (IHC), paraffin-embedded sections of femurs were baked at 60 °C for 20 min, deparaffinized by xylene for 25 min, rehydrated through ethanol series, and incubated with citrate buffer at 95 °C for 20 min for antigen retrieval. Sections were incubated with the primary antibodies as indicated overnight at 4 °C, followed by goat anti-rabbit secondary antibody. The primary antibodies used in this study include Bcl-xL (1:2000, ab178844, Abcam) and Gli1 (1:100, 101156-T10, Sino Biological).

Bcl-xL, sequence (Q07817 whole entry, species assumed): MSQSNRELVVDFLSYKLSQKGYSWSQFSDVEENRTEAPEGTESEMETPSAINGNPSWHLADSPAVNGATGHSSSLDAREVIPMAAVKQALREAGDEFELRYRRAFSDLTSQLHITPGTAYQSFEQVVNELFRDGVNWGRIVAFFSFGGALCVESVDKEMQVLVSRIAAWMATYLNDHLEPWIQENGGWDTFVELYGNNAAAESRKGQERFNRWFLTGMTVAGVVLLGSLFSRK

With `CC1(C)CCC(c2ccc(Cl)cc2)=C(CN2CCN(c3ccc(C(=O)NS(=O)(=O)c4ccc(NCCCN5CCN(CCCC#Cc6cccc7c6CN(C6CCC(=O)NC6=O)C7=O)CC5)c(S(=O)(=O)C(F)(F)F)c4)cc3)CC2)C1` (centres unmarked) [SIAIS361034] the “cytotoxicity (MTT)” value [1] was “no toxic effects”, the Ki (Bcl-xL) was 37.3 nM and the “mRNA expression of Hh target genes Gli1 and Ptch1 activated by SAG” value (Gli1 and Ptch1 mRNA) was “significantly blocked”. The “NF-κB luciferase activity activated by TNF-α” value (NF-κB signaling pathway) was “no inhibitory activity”, the “platelets and other indispensable blood cells at the end of the experiment” value [2] was “no side effects” and the “interaction of Sufu with Gli1” value (Sufu/Gli1 interaction) was “increased the interaction of Sufu with Gli1”. The “hair growth during depilation-induced hair regeneration” value ([3]; male C57BL/6J mice, administered after 4 days of depilation) was “significantly retarded hair growth”, the “Hh activity in skin (Gli1 mRNA)” value ([3]; skin harvested 6 h after the last dosage, RT-qPCR) was “suppressed the Hh activity” and the “Gli1 and Bcl-xL protein levels in skin tissues” value ([3]; skin harvested 6 h after the last dosage, western blot) was “suppressed the expression of Gli1 and Bcl-xL”. The “columnar organization of chondrocytes in the growth plate (H&E)” value ([4]; cross sections of the femur, mice treated P12 to P16) was “not destroyed”, the “skeleton (Micro-CT)” value ([4]; mice at 6 weeks of age, treated P12 to P16) was “no abnormalities in the skeleton” and the “growth plate of femurs (Micro-CT) compared with Vehicle” value ([4]; mice treated P12 to P16) was “no significant difference”. For the same molecule, the “levels of Bcl-xL in femurs (IHC)” value ([4]; mice treated P12 to P16) was “No change” and the “expression levels of Gli1 in femurs (IHC)” value ([4]; mice treated P12 to P16, compared with Vehicle) was “no alteration”.
